Assay results as given in patent US20230263774A1, “OPTIMIZED SURGERY PROTOCOL AND KITS” (Steadman Philippon Research Institute, priority 2020, published 2023).
“Also recorded” adds a separate entry of the source.

Legend:
Z24−/− mice = assay: Senolytic treatment of progeroid Z24−/− mice, articular cartilage degeneration / OA; assay type: in vivo; conditions: for incidence/severity of age-related disorders including osteoarthritis (OA): progeroid mice accelerated aging model
Excerpt: The Zmpste24−/− (Z24−/−) model of Hutchinson-Gilford Progeria Syndrome (HGPS) was used to model not only HGPS musculoskeletal decline, but also as a pre-clinical aging model due to its predictable and accelerated aging phenotypes. Z24−/− animals are short lived (˜6 months) and have severe musculoskeletal abnormalities including weight loss, dystonia, sarcopenia, osteoporosis and as reported herein, early signs of bone loss and spontaneous osteoarthritis (OA).
As a proof of concept for the potential of senolytics to reduce AC degeneration, a pilot study was conducted with Dasatinib+Quercitin (D/Q; 5 mg/kg; 50 mg/kg). Z24−/− mice were administered D/Q via oral gavage as a single dose (D/Qsin) at 4 months of age, or monthly dose starting at 2 months of age (D/Qmul) prior to sacrifice at 5 months.

[1] = test system: human adipose-derived stem cells (ADSCs); assay: Senescent cells in culture-expanded adipose-derived stem cells, staining for senescence-associated heterochromatin foci (H2AX, H3K9); assay type: cell-based
Excerpt: In preliminary experiments (FIG. 4), pre-existing senescent cells were found in cultured human adipose-derived stem cells (ADSCs). The ability of these cells to produce SASPs can induce significant damage to other stem cells or endogenous cells once re-administered into the intra-articular space. Thus, avoiding the proliferation of senescent cells from long-term expansion is critical to prevent these cells from compromising the ability of adult stem cells to repair cartilage. […] ADSCs from a young person (YF) and old person (OF) were cultured to passage 4 using normal proliferation media (DMEM/F-12, 10% FBS, 1% penicillin/streptomycin). The cells were subsequently treated with 50 μM of Fisetin for 24 hours and then cultured for 48 hours. Senescent cells were identified using antibodies for senescence-associated heterochromatin foci. […] These experiments support that Fisetin can eliminate senescent cells and SASPs in expanded stem cell populations, and this may apply to harvested tissues such as BMC from older OA patients that likely contain senescent cells (see FIGS. 2A-4, above).

[2] = test system: osteochondral defect in the patellar groove of New Zealand White rabbits; assay: Rabbit osteochondral defect + bone marrow stimulation (BMS) with oral Fisetin, oral Losartan and/or BMAC; assay type: in vivo; conditions: for Microscopic evaluation and micro-CT: 12 weeks postoperatively, with or without BMAC, preliminary; for healing capacity of BMS-mediated osteochondral defects: compared with BMS alone, preliminary results
Protocol: Bone Marrow Collection and BMAC Processing for Autologous Transplant: New Zealand White rabbits were anesthetized to collect bone marrow aspirate (BMA) using an 18 G heparinized spinal needle through both iliac crests simultaneously by two surgeons for the purpose of preparing bone marrow aspirate concentrate (BMAC). Bone marrow samples were collected in 10 ml syringes containing ACD-A as an anticoagulant (˜1.5 ml of ACD-A per 10 ml sample), processed under sterile BSCs, and a benchtop centrifuge was used to prepare BMACs. Filters were also used for BMA prior to processing into BMACs. These procedures were performed under sterile conditions.
A 5 mm diameter osteochondral defect was created in the patellar groove of bilateral knees for 64 New Zealand White rabbits (128 knees). Under a sterile technique, a midline 3 cm incision was made in a knee flexed at approximately 30° and approached intra-articularly through a medial parapatellar incision. The patella was dislocated, and a 5 mm diameter osteochondral defect was created in the patellar groove (depth: 2 mm), followed by BMS. To allow bone marrow MSCs to be introduced into the defect space, five equally spaced holes of 2 mm depth were drilled into the subchondral bone using a 0.7 mm burr. […] Once the creation of the osteochondral defect and the BMS procedure was completed, the joint capsule was closed and 0.5 ml of BMAC was injected into the joint cavity of the left knee.
(§1) Post-surgical evaluations were to be conducted at two time points: 6 & 12 weeks. Autologous BMAC was injected into the unilateral knee joint cavity immediately after surgery, with no BMAC injection on the other side. Each rabbit was orally treated with Fisetin, Losartan, or a combination of the two biologics from the day after surgery until the day of euthanasia, for comparison with the untreated group. Rabbits were sacrificed 6 weeks or 12 weeks postoperatively. The experimental groups were as follows (N-8 per group): 1) OD+BMS; 2) OD+BMS+oral Fisetin; 3) OD+BMS+oral Losartan; 4) OD+BMS+oral Fisetin+oral Losartan; 5) OD+BMS+BMAC; 6) OD+BMS+BMAC+oral Fisetin; 7) OD+BMS+BMAC+oral Losartan; and 8) OD+BMS+[…].

[3] = test system: Superoxide Dismutase 1 (SOD1); assay: qPCR gene expression analysis of synovium harvested from the knee joint (rabbit OD + BMS study); assay type: in vivo, New Zealand White rabbits; conditions: Fisetin-treated group vs control group (p<0.01)
Protocol: as §1

[4] = test system: PBMCs from fresh human peripheral blood; assay: Fisetin treatment of isolated PBMCs, C12FDG / DRAQ7 flow cytometry; assay type: cell-based
Excerpt: A flow cytometry-based approach to assess senescent total PBMCs from fresh human peripheral blood was optimized. Cells were identified using FSC and SSC controls (FIG. 19A), while senescent cells, or C12FDG+ events, were identified with an emission of 514 nm (green channel).
To examine cellular phenotypes of C12FDG-stained cells, low, moderate, and high populations were sorted using FACS for two study participants (FIG. 20A). […] Using the same methodology, the rate and senolytic efficacy of Fisetin treatment were determined on PBMCs directly at 1, 4, 18, and 24 hr timepoints. […] Furthermore, the rate of senolytic activity of Fisetin was faster versus other known senotherapeutic drugs such as metformin, dasatinib, or quercetin (FIG. 21D).
Thus, it was next tested whether the reduction of highly senescent cells by Fisetin was associated with co-incident cell death. To this end, cells were co-stained with the viability stain DRAQ7.

[5] = test system: senescent CD3+ T-Cells and plasma biomarkers; assay: Single case: patient on Fisetin, senescent CD3+ T-Cells (C12FDG) and plasma biomarkers; assay type: in vivo, human; conditions: 150 days of Fisetin 100 mg/day
Protocol: Another flow cytometry-based approach was optimized to assess senescent total PBMCs and CD3+ T-Cells from fresh human peripheral blood. For this approach, T-Cells were isolated from PBMCs, washed, then stained with the senescence marker C12FDG for 1 hr, and then used for flow cytometry analysis. Cells were identified using FSC and SSC controls, while senescent cells, or C12FDG+ events, were identified with an emission of 514 nm (green channel).
Thus, it was tested whether Fisetin could reduce senescent T-Cells and plasma biomarkers for OP in a single patient enrolled in the study that disclosed Fisetin use between blood draws. […] This was commensurate with a reduction in OP markers OPG, OPN, and SOST in addition to the pro-inflammatory SASP marker TNF-α (FIG. 25B). […] In addition, in a single case study, C12FDG staining was sensitive enough to detect reductions in senescent T-Cells associated with reduction in OP and SASP biomarkers following Fisetin therapy.

[6] = test system: bone marrow mesenchymal stem cells (BM-MSCs); assay: Senescent cells in bone marrow mesenchymal stem cells after Fisetin, C12FDG flow cytometry; assay type: cell-based, human; conditions: 33 μM Fisetin 24 hours, passage 3
Protocol: Reduction in senescent cells in BMSCs after senolytic treatment: To determine a reduction in senescent cells in bone marrow stem cells after senolytic therapy, approximately 5 mL of bone marrow concentrate were obtained from a person. The BMC samples were immediately processed further to isolate the mononuclear layer and plated in a T25 flask to expand BM-MSCs. Bone marrow cells were pre-plated for 3-weeks in basal culture medium (CM) and passaged with CM+Fibroblast Growth Factor (FGF) to expand bone marrow mesenchymal stem cells (BM-MSCs). At passage 3, confluent BM-MSCs were treated with CM+FGF, 33 μM of DMSO, or 33 μM of Fisetin+GM+FGF for 24-hours in a 12-well plate. Then, […] of bafilomycin (inhibits lysosomal acidification) and […] of C12FDG (senescent label) were used to assess senescence via flow cytometry. In BM-MSCs at passage 3, the number of senescent in the Fisetin treated BM-MSCs was reduced by approximately 24% compared to the DMSO treated BM-MSCs, and approximately a 5% reduction of senescent cells was observed when compared to control BM-MSCs (FIG. 27).

[7] = test system: osteochondral defect in the patellar groove of New Zealand White rabbits; assay: Rabbit osteochondral defect model, microfracture plus oral Losartan; assay type: in vivo
Protocol: An osteochondral defect (diameter: 5 mm, depth: 2 mm) was made in the patellar groove of 48 New Zealand White rabbits. The rabbits were divided into 3 groups (8/group/time point): control (osteochondral defect only), microfracture (defect+microfracture), and Losartan (defect+microfracture+Losartan). For the Losartan group, a dose of 10 mg/kg/day of Losartan was orally administrated by mixing with the chew treat daily.

[8] = test system: osteochondral defect in the patellar groove of New Zealand White rabbits; conditions: 6 weeks after surgery; Losartan 10 mg/kg/day oral; cited from earlier work

Structure (SMILES): CO[C@H]1/C=C\C=C(/C)C(=O)NC2=CC(=O)C(NCCN(C)C)=C(C[C@@H](C)C[C@H](OC)[C@H](O)[C@@H](C)/C=C(\C)[C@@H]1OC(N)=O)C2=O [Alvespimycin]
- incidence/severity of age-related disorders including osteoarthritis (OA) (Z24−/− mice): can reduce

Structure (SMILES): O=c1c(O)c(-c2ccc(O)c(O)c2)oc2cc(O)ccc12 [Fisetin, 2-(3,4-dihydroxyphenyl)-3,7-dihydroxychromen-4-one]
- number of senescent cells in the expanded ADSCs in vitro ([1]; 50 μM Fisetin for 24 hours, then cultured 48 hours, passage 4 ADSCs from young and old female): significantly reduced
- -H2AX and H3K9 in Adipose Derived Stem Cells ([1]; FIG. 4, senescence quantified by H2AX and H3K9 staining): reduces
- articular cartilage degeneration (Z24−/− mice; murine model of natural and accelerated (progeria) aging): delay
- incidence/severity of age-related disorders including osteoarthritis (OA) (Z24−/− mice): can reduce
- Macroscopic assessment, gross images compared to the control group ([2]; 6 weeks postoperatively, control = BMS, without medication, without BMAC): significant improvement
- Microscopic evaluation and micro-CT [2]: trend toward improvement
- healing capacity of BMS-mediated osteochondral defects [2]: enhanced
- expression level of Superoxide Dismutase 1 (SOD1) in the synovium [3]: significantly higher
- time of maximum reduction of high senescent cells ([4]; Fisetin on PBMCs directly): 4 h
- time to significant reduction of high senescent cells ([4]; Fisetin on PBMCs directly): ≤ 1 h
- high senescent cell counts and percent senescent cells ([4]; Fisetin on PBMCs directly, timepoints 1, 4, 18, 24 hr): significantly reduced
- DRAQ7+ cells (cell death) with decrease in highly senescent cells ([4]; co-stained with viability stain DRAQ7, 1 and 4 hrs): concomitant increases
- effect on highly senescent cells vs moderately senescent cells ([4]; isolated PBMCs (FIG. 22D)): primarily affect only highly senescent cells and not moderately senescent cells; also recorded: selectively kills highly senescent cells
- rate of senolytic activity ([4]; versus metformin, dasatinib, or quercetin (FIG. 21D)): faster
- levels of moderately and highly senescent CD3+ T-Cells [5]: reduces
- OP marker OPG in plasma ([5]; pre- vs. post-Fisetin): reduction
- OP marker OPN in plasma ([5]; pre- vs. post-Fisetin): reduction
- OP marker SOST in plasma ([5]; pre- vs. post-Fisetin): reduction
- pro-inflammatory SASP marker TNF-α in plasma ([5]; pre- vs. post-Fisetin): reduction
- reduction of number of senescent cells in BM-MSCs ([6]; compared to DMSO treated BM-MSCs): approximately 24%
- reduction of senescent cells in BM-MSCs ([6]; compared to control BM-MSCs (CM+FGF)): approximately 5%

Structure (SMILES): CCCCc1nc(Cl)c(CO)n1Cc1ccc(-c2ccccc2-c2nn[nH]n2)cc1 [Losartan]
- ICRS macroscopic score ([7]; 12 weeks, Losartan 10 mg/kg/day oral + microfracture): 11.7±0.5
- modified O'Driscoll score (based on Safranin O staining) compared to the other 2 groups ([7]; Losartan 10 mg/kg/day oral + microfracture): significantly higher
- Immunohistochemistry staining of cartilage (Col2) ([7]; Losartan treatment group): nearly normal structure with hyaline-like column-arranged chondrocytes
- Microscopic evaluation and micro-CT [2]: trend toward improvement
- healing capacity of BMS-mediated osteochondral defects [2]: enhanced
- articular cartilage repair compared to microfracture or control groups [8]: significantly improved

Structure (SMILES): O=c1c(O)c(-c2ccc(O)c(O)c2)oc2cc(O)cc(O)c12 [Quercetin]
- incidence/severity of age-related disorders including osteoarthritis (OA) (Z24−/− mice): can reduce
